# In US9670227B2, “Thienopyrimidine derivatives, a process for their preparation and pharmaceutical compositions containing them” (LES LABORATOIRES SERVIER, priority 2013, dated 2017):
# Biological target: Mcl-1 protein (UniProtKB primary accession number: Q07820) (Homo sapiens, UniProt Q07820)
# Assay: Inhibition of Mcl-1 by fluorescence polarisation, Method 1
# Format: binding
# Settings: fluorescence polarisation test; Method 2 values are underlined in the patent (underlining not visible here); read-out: IC50 (M) Mcl-1 FP
# Method: The relative binding potency of each compound was determined via Fluorescence Polarisation (FP).
# An 11 point serial dilution of each compound was prepared in DMSO and 2 μl transferred into flat bottomed, low binding, 384-well plate (final DMSO concentration 5%). 38 μl of buffer (10 mM 4-(2-hydroxyethyl)-1-piperazineethanesulfonic acid [HEPES], 150 mM NaCl, 0.05% Tween 20, pH 7.4), containing the Fluorescein labelled ligand (final concentration 1 nM) and Mcl-1 protein (final concentration 5 nM) was then added.
# Chain of Mcl-1 protein (Q07820 whole entry): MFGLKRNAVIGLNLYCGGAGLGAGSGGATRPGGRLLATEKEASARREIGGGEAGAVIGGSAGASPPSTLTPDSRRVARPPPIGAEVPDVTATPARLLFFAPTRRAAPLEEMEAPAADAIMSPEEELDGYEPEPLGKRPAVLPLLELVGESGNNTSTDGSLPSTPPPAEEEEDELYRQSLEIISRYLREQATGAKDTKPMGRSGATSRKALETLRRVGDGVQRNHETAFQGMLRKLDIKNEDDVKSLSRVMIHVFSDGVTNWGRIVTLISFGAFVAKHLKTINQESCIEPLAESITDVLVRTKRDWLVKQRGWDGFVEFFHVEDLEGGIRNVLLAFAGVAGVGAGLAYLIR
row,Structure (SMILES),IC50 [M]
1,"Cc1c(-c2c(-c3ccc(F)cc3)sc3ncnc(OC(Cc4ccccc4OCc4ccnn4CC(F)(F)F)C(=O)O)c23)ccc(OCCN2CCN(C)CC2)c1Cl [Example 77, (2R)-2-{[(5Sa)-5-{3-chloro-2-methyl-4-[2-(4-methylpiperazin-1-yl)ethoxy]phenyl}-6-(4-fluorophenyl)thieno[2,3-d]pyrimidin-4-yl]oxy}-3-(2-{[1-(2,2,2-trifluoroethyl)-1H-pyrazol-5-yl]methoxy}phenyl)propanoic acid]",5.9e-09
2,"CCCCn1nccc1COc1ccccc1CC(Oc1ncnc2sc(-c3ccc(F)cc3)c(-c3ccc(OCCN4CCN(C)CC4)c(Cl)c3C)c12)C(=O)O [Example 83, (2R)-3-{2-[(1-butyl-1H-pyrazol-5-yl)methoxy]phenyl}-2-{[(5Sa)-5-{3-chloro-2-methyl-4-[2-(4-methylpiperazin-1-yl)ethoxy]phenyl}-6-(4-fluorophenyl)thieno[2,3-d]pyrimidin-4-yl]oxy}propanoic acid]",5.1e-09
3,"Cc1c(-c2c(-c3ccc(F)cc3)sc3ncnc(OC(Cc4ccccc4OCc4cnccn4)C(=O)O)c23)ccc(OCCN2CCN(C)CC2)c1Cl [Example 91, (2R)-2-{[(5Sa)-5-{3-chloro-2-methyl-4-[2-(4-methylpiperazin-1-yl)ethoxy]phenyl}-6-(4-fluorophenyl)thieno[2,3-d]pyrimidin-4-yl]oxy}-3-[2-(pyrazin-2-ylmethoxy)phenyl]propanoic acid]",7.3e-09
4,"Cc1c(-c2c(-c3ccc(F)cc3)sc3ncnc(OC(Cc4ccccc4OCc4cncn4C)C(=O)O)c23)ccc(OCCN2CCN(C)CC2)c1Cl [Example 92, (2R)-2-{[(5Sa)-5-{3-chloro-2-methyl-4-[2-(4-methylpiperazin-1-yl)ethoxy]phenyl}-6-(4-fluorophenyl)thieno[2,3-d]pyrimidin-4-yl]oxy}-3-{2-[(1-methyl-1H-imidazol-5-yl)methoxy]phenyl}propanoic acid]",1.2e-08
5,"COc1ncc(Br)c(COc2ccccc2C[C@@H](Oc2ncnc3sc(-c4ccc(F)cc4)c(-c4ccc(OCCN5CCN(C)CC5)c(Cl)c4C)c23)C(=O)O)n1 [Example 99, (2R)-3-{2-[(5-bromo-2-methoxypyrimidin-4-yl)methoxy]phenyl}-2-{[(5Sa)-5-{3-chloro-2-methyl-4-[2-(4-methylpiperazin-1-yl)ethoxy]phenyl}-6-(4-fluorophenyl)thieno[2,3-d]pyrimidin-4-yl]oxy}propanoic acid]",2e-08
6,"COc1ncc(-c2ccsc2)c(COc2ccccc2CC(Oc2ncnc3sc(-c4ccc(F)cc4)c(-c4ccc(OCCN5CCN(C)CC5)c(Cl)c4C)c23)C(=O)O)n1 [Example 100, (2R)-2-{[(5Sa)-5-{3-chloro-2-methyl-4-[2-(4-methylpiperazin-1-yl)ethoxy]phenyl}-6-(4-fluorophenyl)thieno[2,3-d]pyrimidin-4-yl]oxy}-3-(2-{[2-methoxy-5-(thiophen-3-yl)pyrimidin-4-yl]methoxy}phenyl)propanoic acid]",1.2e-08
7,"Cc1c(-c2c(-c3ccc(F)cc3)sc3ncnc(OC(Cc4ccccc4OCc4nncn4C)C(=O)O)c23)ccc(OCCN2CCN(C)CC2)c1Cl [Example 102, (2R)-2-{[(5Sa)-5-{3-chloro-2-methyl-4-[2-(4-methylpiperazin-1-yl)ethoxy]phenyl}-6-(4-fluorophenyl)thieno[2,3-d]pyrimidin-4-yl]oxy}-3-{2-[(4-methyl-4H-1,2,4-triazol-3-yl)methoxy]phenyl}propanoic acid]",9.5e-09
8,"Cc1ccccc1-c1nccc(COc2ccccc2CC(Oc2ncnc3sc(-c4ccc(F)cc4)c(-c4ccc(OCCN5CCN(C)CC5)c(Cl)c4C)c23)C(=O)O)n1 [Example 113, (2R)-2-{[(5Sa)-5-{3-chloro-2-methyl-4-[2-(4-methylpiperazin-1-yl)ethoxy]phenyl}-6-(4-fluorophenyl)thieno[2,3-d]pyrimidin-4-yl]oxy}-3-(2-{[2-(2-methylphenyl)pyrimidin-4-yl]methoxy}phenyl)propanoic acid]",2.6e-09
9,"Cc1c(-c2c(-c3ccc(F)cc3)sc3ncnc(OC(Cc4ccccc4OCc4ccnc(-c5ccco5)n4)C(=O)O)c23)ccc(OCCN2CCN(C)CC2)c1Cl [Example 117, (2R)-2-{[(5Sa)-5-{3-chloro-2-methyl-4-[2-(4-methylpiperazin-1-yl)ethoxy]phenyl}-6-(4-fluorophenyl)thieno[2,3-d]pyrimidin-4-yl]oxy}-3-(2-{[2-(furan-2-yl)pyrimidin-4-yl]methoxy}phenyl)propanoic acid]",6.1e-09
10,"Cc1cnccc1-c1nccc(COc2ccccc2CC(Oc2ncnc3sc(-c4ccc(F)cc4)c(-c4ccc(OCCN5CCN(C)CC5)c(Cl)c4C)c23)C(=O)O)n1 [Example 120, (2R)-2-{[(5Sa)-5-{3-chloro-2-methyl-4-[2-(4-methylpiperazin-1-yl)ethoxy]phenyl}-6-(4-fluorophenyl)thieno[2,3-d]pyrimidin-4-yl]oxy}-3-(2-{[2-(3-methylpyridin-4-yl)pyrimidin-4-yl]methoxy}phenyl)propanoic acid]",3.8e-09
11,"Cc1ccncc1-c1nccc(COc2ccccc2CC(Oc2ncnc3sc(-c4ccc(F)cc4)c(-c4ccc(OCCN5CCN(C)CC5)c(Cl)c4C)c23)C(=O)O)n1 [Example 123, (2R)-2-{[(5Sa)-5-{3-chloro-2-methyl-4-[2-(4-methylpiperazin-1-yl)ethoxy]phenyl}-6-(4-fluorophenyl)thieno[2,3-d]pyrimidin-4-yl]oxy}-3-(2-{[2-(4-methylpyridin-3-yl)pyrimidin-4-yl]methoxy}phenyl)propanoic acid]",4.3e-09
12,"COc1ccccc1-c1nccc(COc2ccccc2CC(Oc2ncnc3sc(-c4ccc(F)cc4)c(-c4ccc(OCCN(C)C)c(Cl)c4C)c23)C(=O)O)n1 [Example 135, (2R)-2-{[(5Sa)-5-{3-chloro-4-[2-(dimethylamino)ethoxy]-2-methylphenyl}-6-(4-fluorophenyl)thieno[2,3-d]pyrimidin-4-yl]oxy}-3-(2-{[2-(2-methoxyphenyl)pyrimidin-4-yl]methoxy}phenyl)propanoic acid]",8.6e-09
13,"Cc1c(-c2c(-c3ccc(F)cc3)sc3ncnc(OC(Cc4ccccc4OCc4cnccn4)C(=O)O)c23)ccc(OCCN2CCOCC2)c1Cl [Example 148, (2R)-2-{[(5Sa)-5-{3-chloro-2-methyl-4-[2-(morpholin-4-yl)ethoxy]phenyl}-6-(4-fluorophenyl)thieno[2,3-d]pyrimidin-4-yl]oxy}-3-[2-(pyrazin-2-ylmethoxy)phenyl]propanoic acid]",3.1e-08

# Other lines, results leading:
row,IC50 [M],Structure (SMILES)
1,1.2e-08,"COc1ccccc1CC(Oc1ncnc2sc(-c3ccc(F)o3)c(-c3ccc(OCCN4CCN(C)CC4)c(Cl)c3C)c12)C(=O)O [Example 149, (2R)-2-{[(5Sa)-5-{3-chloro-2-methyl-4-[2-(4-methylpiperazin-1-yl)ethoxy]phenyl}-6-(5-fluorofuran-2-yl)thieno[2,3-d]pyrimidin-4-yl]oxy}-3-(2-methoxyphenyl)propanoic acid]"
2,9.3e-09,"Cc1c(-c2c(-c3ccc(F)o3)sc3ncnc(OC(Cc4ccccc4OCC4CCCO4)C(=O)O)c23)ccc(OCCN2CCN(C)CC2)c1Cl [Example 150, (2R)-2-{[(5Sa)-5-{3-chloro-2-methyl-4-[2-(4-methylpiperazin-1-yl)ethoxy]phenyl}-6-(5-fluorofuran-2-yl)thieno[2,3-d]pyrimidin-4-yl]oxy}-3-{2-[(2R)-tetrahydrofuran-2-ylmethoxy]phenyl}propanoic acid]"
3,4.6e-09,"Cc1c(-c2c(-c3ccc(F)o3)sc3ncnc(OC(Cc4ccccc4OCC(F)(F)F)C(=O)O)c23)ccc(OCCN2CCN(C)CC2)c1Cl [Example 158, (2R)-2-{[(5Sa)-5-{3-chloro-2-methyl-4-[2-(4-methylpiperazin-1-yl)ethoxy]phenyl}-6-(5-fluorofuran-2-yl)thieno[2,3-d]pyrimidin-4-yl]oxy}-3-[2-(2,2,2-trifluoroethoxy)phenyl]propanoic acid]"
4,3e-09,"Cc1c(-c2c(-c3ccc(F)o3)sc3ncnc(OC(Cc4ccccc4OCc4ccnc(-c5ccncc5)n4)C(=O)O)c23)ccc(OCCN2CCN(C)CC2)c1Cl [Example 172, (2R)-2-{[(5Sa)-5-{3-chloro-2-methyl-4-[2-(4-methylpiperazin-1-yl)ethoxy]phenyl}-6-(5-fluorofuran-2-yl)thieno[2,3-d]pyrimidin-4-yl]oxy}-3-(2-{[2-(pyridin-4-yl)pyrimidin-4-yl]methoxy}phenyl)propanoic acid]"
5,2.3e-09,"COCCc1nccc(COc2ccccc2CC(Oc2ncnc3sc(-c4ccc(F)o4)c(-c4ccc(OCCN5CCN(C)CC5)c(Cl)c4C)c23)C(=O)O)n1 [Example 174, (2R)-2-{[(5Sa)-5-{3-chloro-2-methyl-4-[2-(4-methylpiperazin-1-yl)ethoxy]phenyl}-6-(5-fluorofuran-2-yl)thieno[2,3-d]pyrimidin-4-yl]oxy}-3-(2-{[2-(2-methoxyethyl)pyrimidin-4-yl]methoxy}phenyl)propanoic acid]"
6,3.9e-09,"Cc1c(-c2c(-c3ccc(F)o3)sc3ncnc(OC(Cc4ccccc4OCc4ccnc(N5CCOCC5)n4)C(=O)O)c23)ccc(OCCN2CCN(C)CC2)c1Cl [Example 175, (2R)-2-{[(5Sa)-5-{3-chloro-2-methyl-4-[2-(4-methylpiperazin-1-yl)ethoxy]phenyl}-6-(5-fluorofuran-2-yl)thieno[2,3-d]pyrimidin-4-yl]oxy}-3-(2-{[2-(morpholin-4-yl)pyrimidin-4-yl]methoxy}phenyl)propanoic acid]"
7,3.1e-09,"COc1nccc(COc2ccccc2CC(Oc2ncnc3sc(-c4ccc(F)o4)c(-c4ccc(OCCN5CCN(C)CC5)c(Cl)c4C)c23)C(=O)O)n1 [Example 176, (2R)-2-{[(5Sa)-5-{3-chloro-2-methyl-4-[2-(4-methylpiperazin-1-yl)ethoxy]phenyl}-6-(5-fluorofuran-2-yl)thieno[2,3-d]pyrimidin-4-yl]oxy}-3-{2-[(2-methoxypyrimidin-4-yl)methoxy]phenyl}propanoic acid]"
